Converted amounts (≈) assume the structure as drawn.
Tests used:
Staphylococcus aureus [1] = experiment: Antibacterial activity against methicillin-sensitive Staphylococcus aureus MB2685; type: functional
Streptococcus pneumoniae = experiment: Antibacterial activity against Streptococcus pneumoniae MB212; type: functional
Staphylococcus aureus [2] = experiment: Antibacterial activity against methicillin-resistant Staphylococcus aureus COL MB5393; type: functional
Enterococcus faecium = experiment: Antibacterial activity against vancomycin-resistant Enterococcus faecium CL5791; type: functional
Enterococcus faecalis = experiment: Antibacterial activity against vancomycin-sensitive Enterococcus faecalis CL8516; type: functional
Staphylococcus aureus [3] = experiment: Inhibition of type II fatty acid synthesis in Staphylococcus aureus using n-octanoyl-CoA and [14C]malonyl CoA substrate
Escherichia coli = experiment: Antibacterial activity against lpxC mutant gene expressing Escherichia coli MB4902; type: functional
Staphylococcus aureus [4] = experiment: Inhibition of DNA biosynthesis in Staphylococcus aureus
Staphylococcus aureus [5] = experiment: Inhibition of phospholipid biosynthesis in Staphylococcus aureus
Staphylococcus aureus [6] = experiment: Inhibition of protein biosynthesis in Staphylococcus aureus
Staphylococcus aureus [7] = experiment: Inhibition of RNA biosynthesis in Staphylococcus aureus
[8] = biological target: T1, Oxysterols receptor LXR-alpha (Homo sapiens, UniProt Q13133); experiment: Displacement of [3H2]F3-methyl AA from LXRalpha by scintillation proximity assay
T1 sequence (Q13133 whole entry): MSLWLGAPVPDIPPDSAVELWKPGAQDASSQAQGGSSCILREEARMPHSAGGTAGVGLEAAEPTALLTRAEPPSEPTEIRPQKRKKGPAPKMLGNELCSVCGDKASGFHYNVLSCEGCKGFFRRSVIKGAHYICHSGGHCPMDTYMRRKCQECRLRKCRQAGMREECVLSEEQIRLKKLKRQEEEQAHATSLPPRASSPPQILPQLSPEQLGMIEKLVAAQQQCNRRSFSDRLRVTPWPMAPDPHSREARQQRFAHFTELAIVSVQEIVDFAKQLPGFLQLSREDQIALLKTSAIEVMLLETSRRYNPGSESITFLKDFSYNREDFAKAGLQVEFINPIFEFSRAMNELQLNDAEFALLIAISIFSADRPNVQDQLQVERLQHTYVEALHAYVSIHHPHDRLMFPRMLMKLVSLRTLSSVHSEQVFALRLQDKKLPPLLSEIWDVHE

[9] = biological target: T2, Oxysterols receptor LXR-beta (Homo sapiens, UniProt P55055); experiment: Displacement of [3H2]F3-methyl AA from LXRbeta by scintillation proximity assay
T2 sequence (P55055 whole entry): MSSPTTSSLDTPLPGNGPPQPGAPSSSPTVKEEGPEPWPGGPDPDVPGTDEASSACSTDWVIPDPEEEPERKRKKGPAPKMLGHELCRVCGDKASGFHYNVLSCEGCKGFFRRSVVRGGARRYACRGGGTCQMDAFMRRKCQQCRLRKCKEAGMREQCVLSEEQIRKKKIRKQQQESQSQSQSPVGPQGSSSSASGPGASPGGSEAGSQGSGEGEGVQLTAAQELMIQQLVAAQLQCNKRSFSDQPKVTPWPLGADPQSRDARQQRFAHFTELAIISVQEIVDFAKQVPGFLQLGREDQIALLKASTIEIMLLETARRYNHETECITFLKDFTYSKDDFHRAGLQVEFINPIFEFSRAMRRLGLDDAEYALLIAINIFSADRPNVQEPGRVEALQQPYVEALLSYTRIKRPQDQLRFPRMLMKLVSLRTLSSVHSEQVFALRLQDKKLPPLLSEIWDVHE

Molecule `O=C(N[C@H](CO)[C@H](O)c1ccc([N+](=O)[O-])cc1)C(Cl)Cl` [CHLORAMPHENICOL] has an MIC (Staphylococcus aureus [1]) of 6.25 µg/mL (≈ 19.3 µM), an MIC (Streptococcus pneumoniae) of 1.56 µg/mL (≈ 4.83 µM) and an MIC (Staphylococcus aureus [2]) of 6.25 µg/mL (≈ 19.3 µM). The MIC (Enterococcus faecium) was 6.25 µg/mL (≈ 19.3 µM), the MIC (Enterococcus faecalis) was 1.56 µg/mL (≈ 4.83 µM) and the IC50 (Staphylococcus aureus [3]) was over 250 µg/mL. For the same molecule, the MIC (Escherichia coli) was 1.56 µg/mL (≈ 4.83 µM).

Molecule `Cc1cc(O)cc2c1[C@@H]1O[C@@](C)(Cc3cc4c(c(O)c31)C(=O)c1c(O)cc(O)cc1C4(C)C)O2` has an MIC (Staphylococcus aureus [1]) of 1 µg/mL (≈ 2.17 µM), an MIC (Streptococcus pneumoniae) of 1 µg/mL (≈ 2.17 µM) and an MIC (Staphylococcus aureus [2]) of 0.5 µg/mL (≈ 1.09 µM). The MIC (Enterococcus faecium) was 0.5 µg/mL (≈ 1.09 µM), the MIC (Enterococcus faecalis) was 1 µg/mL (≈ 2.17 µM) and the IC50 (Staphylococcus aureus [3]) was 245 µg/mL (≈ 532 µM). For the same molecule, the MIC (Escherichia coli) was 1 µg/mL (≈ 2.17 µM).

With `COc1cc(C)c2c(c1)O[C@@]1(C)Cc3cc4c(c(O)c3[C@@H]2O1)C(=O)c1c(O)c(Cl)c(O)c(Cl)c1C4(C)C` the MIC (Staphylococcus aureus [1]) was 0.5 µg/mL (≈ 0.92 µM), the IC50 (Staphylococcus aureus [4]) was 0.21 µg/mL (≈ 0.386 µM) and the MIC (Streptococcus pneumoniae) was 1 µg/mL (≈ 1.84 µM). The IC50 (Staphylococcus aureus [5]) was 0.21 µg/mL (≈ 0.386 µM), the MIC (Staphylococcus aureus [2]) was 1 µg/mL (≈ 1.84 µM) and the MIC (Enterococcus faecium) was 2 µg/mL (≈ 3.68 µM). The IC50 (Staphylococcus aureus [6]) was 0.21 µg/mL (≈ 0.386 µM), the MIC (Enterococcus faecalis) was 1 µg/mL (≈ 1.84 µM) and the IC50 (Staphylococcus aureus [3]) was 11.4 µg/mL (≈ 21 µM). The IC50 (Staphylococcus aureus [7]) was 0.21 µg/mL (≈ 0.386 µM), the IC50 [8] was 10 µM and the MIC (Escherichia coli) was 0.5 µg/mL (≈ 0.92 µM). For the same molecule, the IC50 [9] was over 15 µM.

`CO[C@H]1/C=C/O[C@@]2(C)Oc3c(C)c(O)c4c(O)c(c(/C=N/N5CCN(C)CC5)c(O)c4c3C2=O)NC(=O)/C(C)=C\C=C\[C@H](C)[C@H](O)[C@@H](C)[C@@H](O)[C@@H](C)[C@H](OC(C)=O)[C@@H]1C` [RIFAMPIN] showed an MIC (Staphylococcus aureus [1]) of 0.002 µg/mL (≈ 0.00243 µM), an MIC (Streptococcus pneumoniae) of 0.004 µg/mL (≈ 0.00486 µM) and an MIC (Staphylococcus aureus [2]) of 0.002 µg/mL (≈ 0.00243 µM). It also gave an MIC (Enterococcus faecium) of 0.04 µg/mL (≈ 0.0486 µM), an MIC (Enterococcus faecalis) of 0.008 µg/mL (≈ 0.00972 µM) and an IC50 (Staphylococcus aureus [3]) of over 250 µg/mL. For the same molecule, the MIC (Escherichia coli) was 0.02 µg/mL (≈ 0.0243 µM).

Work on `Cc1cc(O)cc2c1[C@H]1O[C@](C)(Cc3cc4c(c(O)c31)C(=O)c1c(O)cc(O)cc1C4(C)C)O2` yielded an MIC (Staphylococcus aureus [1]) of 2 µg/mL (≈ 4.34 µM), an IC50 (Staphylococcus aureus [4]) of 1 µg/mL (≈ 2.17 µM) and an MIC (Streptococcus pneumoniae) of 1 µg/mL (≈ 2.17 µM). The IC50 (Staphylococcus aureus [5]) was 1 µg/mL (≈ 2.17 µM), the MIC (Staphylococcus aureus [2]) was 2 µg/mL (≈ 4.34 µM) and the MIC (Enterococcus faecium) was 2 µg/mL (≈ 4.34 µM). For the same molecule, the IC50 (Staphylococcus aureus [6]) was 1 µg/mL (≈ 2.17 µM), the MIC (Enterococcus faecalis) was 0.5 µg/mL (≈ 1.09 µM) and the IC50 (Staphylococcus aureus [3]) was 288 µg/mL (≈ 625 µM). For the same molecule, the IC50 (Staphylococcus aureus [7]) was 1 µg/mL (≈ 2.17 µM) and the MIC (Escherichia coli) was 2 µg/mL (≈ 4.34 µM).

— ChEMBL document CHEMBL1158822, “Anthrabenzoxocinones from Streptomyces sp. as liver X receptor ligands and antibacterial agents” (J Nat Prod, 2005)
